pIC50: −log10 of the molar value.
Molecular target: Short transient receptor potential channel 6 (Mus musculus) (UniProt Q61143)
Test: potency of TRPC6 cation channel blockers – HEK293 cells, membrane potential dye, IC50, SAR follow-up (AID 504572)
Conditions: acetylcholine-evoked membrane potential dye, FDSS

Short transient receptor potential channel 6 (Mus musculus), sequence (Q61143 whole entry, looked up): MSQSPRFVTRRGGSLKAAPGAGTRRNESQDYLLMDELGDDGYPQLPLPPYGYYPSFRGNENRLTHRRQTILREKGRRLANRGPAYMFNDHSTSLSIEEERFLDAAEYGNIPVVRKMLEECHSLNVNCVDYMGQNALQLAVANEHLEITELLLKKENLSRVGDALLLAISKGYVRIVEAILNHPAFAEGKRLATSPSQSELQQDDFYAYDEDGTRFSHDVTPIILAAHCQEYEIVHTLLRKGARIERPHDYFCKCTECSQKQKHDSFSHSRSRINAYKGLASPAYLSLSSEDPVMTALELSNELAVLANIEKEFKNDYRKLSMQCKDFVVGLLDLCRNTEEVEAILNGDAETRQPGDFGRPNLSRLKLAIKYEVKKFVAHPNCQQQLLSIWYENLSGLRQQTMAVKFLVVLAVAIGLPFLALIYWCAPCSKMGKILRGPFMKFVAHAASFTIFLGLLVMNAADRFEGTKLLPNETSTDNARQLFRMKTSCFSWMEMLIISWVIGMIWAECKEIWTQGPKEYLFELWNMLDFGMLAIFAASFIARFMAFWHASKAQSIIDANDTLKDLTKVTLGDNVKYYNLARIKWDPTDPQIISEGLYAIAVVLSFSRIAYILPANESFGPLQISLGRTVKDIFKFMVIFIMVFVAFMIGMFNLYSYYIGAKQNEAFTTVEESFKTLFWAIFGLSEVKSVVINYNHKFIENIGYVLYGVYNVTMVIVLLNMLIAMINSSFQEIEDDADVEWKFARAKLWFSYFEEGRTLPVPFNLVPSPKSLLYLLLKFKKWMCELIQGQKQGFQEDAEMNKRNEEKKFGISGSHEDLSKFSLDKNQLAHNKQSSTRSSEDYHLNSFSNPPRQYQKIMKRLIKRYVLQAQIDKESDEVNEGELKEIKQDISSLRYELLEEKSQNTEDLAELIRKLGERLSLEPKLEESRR

Structure (SMILES) | pIC50
COc1ccc(OC)c(CNc2ccc3c(c2)ncn3C(C)(C)C)c1 | 5.57
CCOc1ccc(CNc2ccc3c(c2)ncn3C(C)(C)C)cc1 | 5.60
CCOc1ccccc1CNc1ccc2c(c1)ncn2C(C)(C)C | 5.67
CC(C)(C)n1cnc2cc(NCc3ccc(Cl)cc3Cl)ccc21 | 5.19

Next, values leading:

pIC50 | Structure (SMILES)
5.32 | CC(C)(C)n1cnc2cc(NCc3ccccc3Cl)ccc21
5.26 | COc1ccccc1CNc1ccc2c(c1)ncn2C(C)(C)C

— PubChem BioAssay AID504572 (Johns Hopkins Ion Channel Center, 2011)
